“Also recorded” adds a separate entry of the source.

Series [1] can be described thus: Stability of caged molecule in the absence of light. It counts as physicochemical. Conditions: in the dark / prior to illumination.
The conditions of series [2]: 4-OHC compared with 4-OHT; cited from earlier work.
The target of series [3] is T1, CreER (Homo sapiens, UniProt P03372, G400V/L544A/M543A).
T1 construct: host or cells: cells and tissues (MEFs, mammary epithelial acini, skin, mammary gland) of heterozygous Rosa26CreER^T2 knock-in reporter mice; the other entry of the earlier key: cre (P06956, Recombinase cre)
T1 sequence (P03372 with tags, fused parts or gaps G400V/M543A/L544A): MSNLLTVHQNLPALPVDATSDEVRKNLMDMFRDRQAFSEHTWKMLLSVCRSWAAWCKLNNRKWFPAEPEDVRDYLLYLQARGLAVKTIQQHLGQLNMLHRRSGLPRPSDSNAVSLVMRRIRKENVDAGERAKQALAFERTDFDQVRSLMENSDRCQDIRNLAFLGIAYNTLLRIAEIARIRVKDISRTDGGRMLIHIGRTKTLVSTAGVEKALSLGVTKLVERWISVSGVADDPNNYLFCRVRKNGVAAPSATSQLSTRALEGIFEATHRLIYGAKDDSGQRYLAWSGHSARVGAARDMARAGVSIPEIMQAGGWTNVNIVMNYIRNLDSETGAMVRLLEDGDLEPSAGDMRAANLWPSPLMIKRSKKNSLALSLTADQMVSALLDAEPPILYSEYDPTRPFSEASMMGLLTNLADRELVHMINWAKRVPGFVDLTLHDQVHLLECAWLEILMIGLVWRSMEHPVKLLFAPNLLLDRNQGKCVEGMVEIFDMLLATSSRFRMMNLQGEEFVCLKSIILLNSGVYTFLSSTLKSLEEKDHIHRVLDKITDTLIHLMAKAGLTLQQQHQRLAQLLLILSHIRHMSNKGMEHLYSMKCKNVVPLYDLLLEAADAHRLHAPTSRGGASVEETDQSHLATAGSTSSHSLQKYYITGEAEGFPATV
Nature of the series: In vivo photoactivation in skin of Rosa26CreERT2; mT/mG mice (OV-110 imaging). Set-up: species or system mouse. On the procedure: (§1) Female mice of 6-8 weeks old were clean shaven on the dorsal and ventral sides. The caged 4-OHC was dissolved in 20% Solutol for in vivo delivery. The vehicle or 1 mg caged 4-OHC in vehicle was injected intraperitoneally. One hour later, the mice were anesthetized with isoflurane and exposed to UV light from the hand-held 6 W long-wavelength UV lamp (UVP, LLC) for 15 minutes. Alternatively, for mammary tissue illumination, the right inguinal (#4) mammary fat pad was exposed by creating a small skin flap and illumination with UV light for 15 minutes. For enhanced photoconversion, this procedure was repeated four times. On the seventh day, the mice were imaged with Olympus OV-110 epifluorescence imager (Thurber et al., PLoS One 4:e8053, 2009) to detect fluorescent signals emitted from the skin on the dorsal and ventral sides. Alternatively, the left and right mammary glands were dissected and immediately imaged using the intravital laser scanning microscope IV-110 (Kelly et al., PLoS Med. 5:e85, 2008).

Another series addresses T2, CreER fusion protein (Homo sapiens, UniProt P03372, G400V/L544A/M543A).
T2 construct: host or cells: cells and tissues (MEFs, mammary epithelial acini, skin, mammary gland) of heterozygous Rosa26CreER^T2 knock-in reporter mice; the other entry of the earlier key: cre (P06956, Recombinase cre)
T2 sequence (P03372 with tags, fused parts or gaps G400V/M543A/L544A): T1 sequence (P03372 with tags, fused parts or gaps G400V/M543A/L544A)
The series is described as follows: X-gal (lacZ) reporter in MEFs from Rosa26CreERT2; R26R (Lox-STOP-Lox-lacZ) embryos. Conditions: with vs without 365 nm UV light exposure; X-gal stained MEFs. It counts as cell-based, mouse. On the procedure:
(§2) Mouse embryonic fibroblasts (MEFs) were isolated as described (Sharpless et al., Mol. Cell 8:1187-1196, 2001) and grown in DMEM with 10% FBS. To shed UV light on the cells, the cells were first grown in 60-mm dish overnight to become nearly confluent. The next day, the medium was replaced with medium containing caged 4-OHC at 5 μM and incubated for 30 minutes. The cells were washed twice quickly with warm PBS and covered with fresh medium. The dish was placed on the UV emission surface of a handheld 6 W long-wavelength UV lamp (UVP, LLC), and UV light was kept on for a designated period of time. The cells were put back into the incubator to culture for 48-72 h before live imaging or flow cytometric analysis.
Mouse embryonic fibroblasts (MEFs) isolated from the Rosa26CreER^T2; mT/mG mice in cell culture were used to test the caged 4-OHC activity. The Rosa26CreER^T2; mT/mG MEFs were treated with either 4-OHC or caged 4-OHC and illuminated at 365 nm. […] To further test the caged 4-OHC, another reporter mouse was generated (Rosa26CreER^T2; R26R mice). The Rosa26CreER^T2; R26R mice were generated by crossing homozygous Rosa26CreER^T2 mice with homozygous Rosa26-loxP-STOP-loxP-lacZ mice (experimental system shown in FIG. 9).
An additional set of experiments were performed to test the ability of Caged Molecules I, II, and III (shown in Schematic #5) to induce nuclear translocation of a ER fusion protein in a cell following light exposure. Mouse embryonic fibroblasts from Rosa26-CreER^T2; Lox-STOP-Lox-lacZ embryos were treated with 5 μM 4-OHC (positive control; lower left panel), treat Caged Molecule I (“Compound I”) with or without 365 nm UV light exposure (top right and top center panels, respectively), Caged Molecule II (“Compound II”) with or without 365 nm UV light exposure (middle right and middle center panels, respectively), or Caged Molecule III (“Compound III”) with or without 365 UV light exposure (bottom right and […] panels, respectively).

For series [4], the target named is T1, CreER. Nature of the series: In vivo photoactivation in mammary gland of female Rosa26CreERT2; mT/mG mice (ex vivo IV-110 imaging). Also on record: species or system mouse. On the procedure:
as §1

Series [5] addresses T1, CreER. Nature of the series: Photoactivated EGFP expression in MEFs from Rosa26CreERT2; mT/mG mice. Format: cell-based, mouse. Conditions: 5 μM, 365 nm illumination vs no light. On the procedure: as §2
A recently developed double-fluorescent Cre reporter mouse, the mT/mG strain (Muzumdar, Genesis 45:593, 2007) was used to design a biological system that can faithfully report on the induced activity of CreER. This mouse model expresses tdTomato prior to and EGFP following Cre-mediated recombination ubiquitously in tissues. […] The photoinduced activity of caged tamoxifen and caged tamoxifen derivative molecules can be assessed by illuminating the cells and tissues from these mice and looking for EGFP-expressed cells (FIG. 1).

The target of series [6] is T1, CreER. The series is described as follows: Photoactivated EGFP expression in mammary acinus 3D culture from Rosa26CreERT2; mT/mG mice. It counts as cell-based, mouse. The conditions noted are these: 5 μM, 1 min UV lamp or 60× objective DAPI filter. On the procedure:
Mouse mammary epithelial cells […] were isolated from 6-8 week old female Rosa26CreER^T2; mT/mG mice as previously described (Tiede et al., PLoS One 4:e8035, 2009). Briefly, mammary glands were excised, minced using scalpels, and digested for 1 hour in 300 U/mL type 1A collagenase (Sigma) and 100 U/mL hyaluronidase (Sigma). The cells were then treated with 0.25% trypsin/EDTA, dispase (Invitrogen)/DNase (Sigma), and ACK lysing buffer (Invitrogen) in succession. Between each treatment, cells were rinsed in MEGM (1:1 DMEM:F12 Ham supplemented with […], 500 ng/mL hydrocortisone, 10 ng/mL EGF, 20 ng/mL cholera toxin, 5% bovine calf serum, and 1× penicillin/streptomycin). Afterwards, cells were filtered twice through […] nylon cell strainers and seeded in 35-mm dishes that contained a layer of Growth Factor Reduced Matrigel (BD Biosciences) measuring approximately 1-2 mm thickness. Acini usually formed in 4-8 days. During photoactivation, the acini were incubated with MEGM containing 5 μM caged 4-OHC for 1 hour. The cells were washed twice quickly with warm PBS and covered with fresh medium. The dish was placed on the UV emission surface of a hand-held 6 W long-wavelength UV lamp (UVP, LLC, exposure time: 1 minute) or above the 60× objective of an inverted epifluorescent microscope equipped with a standard DAPI filter set. […]

Series [7] in a line: UV-Vis and HPLC-MS characterization of the photocleavage of caged 4-OHC. It counts as physicochemical. On the procedure:
A 0.25 mM solution of caged 4-OHC in 1:1 (v/v) water:acetonitrile was used for the UV-Vis spectroscopic characterization of the photocleavage reaction. The solution of the caged 4-OHC was placed in a 96-well black clear bottom microplate. The solution was then irradiated at ˜365 nm using a hand-held UV lamp. After light exposure, UV-Vis spectra of the solution was recorded in a TECAN microplate reader. A time course of the photocleavage reaction was monitored by exposing the caged 4-OHC solution to light for different durations, and subsequently recording the UV-Vis spectra of the solution.
A 2.0 mM solution of caged 4-OHC in 1:1 (v/v) water: acetonitrile was used for the HPLC-MS study. The solution of the caged 4-OHC was placed in a glass vial and irradiated at ˜365 nm using a hand-held UV lamp. Aliquots were taken at different time intervals and injected to the HPLC-MS machine for analysis. Prism 5 (GraphPad, La Jolla, Calif.) for Mac was used to plot the data.

As for “4-hydrocyclofen conjugated with the photoactivatable 4,5-demethoxy-2-nitrophen methanol (DMNPM) group [DMNPM caged 4-hydroxycyclofen, reference compound]”, the “breakdown in the absence of light exposure” value in series [1] is listed as “spontaneous breakdown in the absence of appropriate light exposure”.

As to `CN(C)CCOc1ccc(C(=C2CCCCC2)c2ccc(O)cc2)cc1` [4-OHC, 4-hydroxycyclofen, reference compound], the photostability entry in series [2] is on record as “better photostability”. Further, the “EGFP signal at whole mouse level” value on CreER [3] (treated with 4-OHC (uncaged)) was “strong EGFP signal was detected”.

With `COc1ccc(-c2ccc([N+](=O)[O-])c(C(C)COc3ccc(C(=C4CCCCC4)c4ccc(OCCN(C)C)cc4)cc3)c2)cc1` (stereo not drawn) [Caged Molecule III], the “nuclear translocation / nuclear transport of the ER fusion protein” value at CreER fusion protein was “resulted in an increase in the nuclear transport of the ER fusion protein”.

`CCOC(=O)COc1c(OC)cc([N+](=O)[O-])c(COc2ccc(C(=C3CCCCC3)c3ccc(OCCN(C)C)cc3)cc2)c1[N+](=O)[O-]` [Caged Molecule II]: the “nuclear translocation / nuclear transport of the ER fusion protein” value on CreER fusion protein is listed as “resulted in an increase in the nuclear transport of the ER fusion protein”.

Turning to `CCOc1c(OC)cc([N+](=O)[O-])c(COc2ccc(C(=C3CCCCC3)c3ccc(OCCN(C)C)cc3)cc2)c1[N+](=O)[O-]` [Caged Molecule I], the “nuclear translocation / nuclear transport of the ER fusion protein” value on CreER fusion protein is “resulted in an increase in the nuclear transport of the ER fusion protein”.

On to `COc1cc(C(C)Oc2ccc(C(=C3CCCCC3)c3ccc(OCCN(C)C)cc3)cc2)c([N+](=O)[O-])cc1OC` (stereo not drawn) [caged 4-OHC, 1-(4,5-dimethoxy-2-nitrophenyl) ethanol (DMNPE) caged 4-hydroxycyclofen], for which the “EGFP induction in illuminated right vs non-illuminated left mammary gland” value at CreER [4] (intraperitoneal, 365 nm light on right mammary gland, seven days later) is on record as “the right, but not the left, mammary gland showed strong EGFP induction; also recorded: expressed EGFP”. In addition, at CreER [4] (skin and mammary gland data taken together), the “diffusion after uncaging to other organs” value is “limited diffusion after uncaging”. The “EGFP expression after photocleavage” value at CreER [5] is reported as “induced EGFP expression in a stringent fashion”. Further, the “breakdown in the absence of light exposure” value in series [1] is listed as “did not appear to show any sign of breakdown prior to illumination”. Moreover, the “EGFP expression in response to photoactivation” value on CreER [6] is “very tight control of EGFP expression in response to photoactivation”. In addition, the “EGFP signal on illuminated ventral vs non-illuminated dorsal skin” value at CreER [3] (intraperitoneal, UV illumination only on ventral skin) is reported as “EGFP signal was observed on the ventral skin but not on the dorsal skin”. Moreover, at CreER [3] (intraperitoneal, ventral skin UV illuminated), the “average increase in fluorescence intensity” value was determined as 2.5 fold. In addition, the “conversion to / release of 4-OHC upon UV irradiation” value in series [7] (HPLC-MS, ~365 nm, 2.0 mM in water:acetonitrile 1:1) is reported as “quantitative, unidirectional conversion to 4-OHC; also recorded: quantitative release of 4-OHC”. In series [7] (hand-held 365 nm UV lamp, UV-Vis, water:acetonitrile 1:1), the “time to completion of photochemical (photocleavage) reaction” value is recorded as no more than 10 min.

Source of the values: patent US9687548B2, “Photoactivatable caged tamoxifen and tamoxifen derivative molecules and methods of use thereof” (Dana-Farber Cancer Institute, Inc., priority 2012, dated 2017).
